From PMC10044725, “Antioxidant, Anti-Inflammatory and Anti-Diabetic Activities of Tectona grandis Methanolic Extracts, Fractions, and Isolated Compounds” (Antioxidants, 2023)
Marks after values point to notes of the source that are not given here.

Experiments:
IL-1β = IL-1β secretion in LPS-stimulated RAW 264.7 macrophages (ELISA); type: cell-based, mouse; settings: 40 µM, LPS 1 µg/mL, 48 h, vs model control (p < 0.0001)
Method: (§1) In order to increase cytokine production, macrophages were treated with LPS at a final concentration of 1 µg/mL, and then with T. grandis compounds at 40 µM. The compounds were solubilized in DMEM medium containing 0.1% DMSO. Dexamethasone was employed as a positive control (5 µg/mL). A centrifuge was used to separate the supernatant from the cells after 48 h of incubation, with three replicates per group. Quantification of TNF-α, IL-1β and IL-6 secretion was achieved by following the ELISA manufacturer's instructions. Then, absorbance was measured at 450 nm. Relative TNF-α, IL-1β and IL-6 expression was calculated according to Equation (4). Following the inflammatory factor test, cell viability was detected by CellTiter96® Aqueous One Solution Cell Proliferation Assay. Then, 20 μL/well CellTiter96® Aqueous One Solution Cell Growth Assay reagent was added to the plate and incubated at 37 °C for 8 h, absorbance was measured at […] and relative cell viability was calculated according to Equation (5). Relative content of inflammatory cytokines (%) = (A1/A2)/A3 × 100%(4) where A1 is the concentrations value of inflammatory cytokines of each group, A2 is the relative cell viability of each group (model group is 100) and A3 is the concentration of inflammatory cytokines of model group. Cell viability rate (%) = B1/B2 × 100%(5) where B1 is the OD value of each fraction group or positive control group and B2 is the OD value of the model control.

TNF-α = TNF-α secretion in LPS-stimulated RAW 264.7 macrophages (ELISA); type: cell-based, mouse; settings: 40 µM, LPS 1 µg/mL, 48 h, vs model control (p < 0.01)
Method: as §1

α-glucosidase = experiment: α-Glucosidase inhibition assay (pNPG); type: biochemical
Method: The inhibitory effect on α-glucosidase was measured according to the previous report method with slight modifications. The 20 mM sample dissolved in DMSO was diluted to 50 μM in PBS, 10 μL sample was mixed with 50 μL of 0.1 μ/mL α-glucosidase solution in 0.1 M phosphate buffer (pH 6.5) in a 96-well microplate and 10 μL PBS was used as a blank control. The mixture was incubated at 37 °C for 10 min before adding 40 µL of 5 mM 4-nitrophenyl-α-D-glucopyranoside to each well. After 30 min of incubation at 37 °C, the reaction was terminated by adding 50 μL of 0.1 M Na2CO3 to this mixture. The released 4-nitrophenol absorbance measurements were carried out using a microplate reader (SpectraMax190, USA) at 405 nm.

Inhibitory Rate (%) (α-glucosidase; at a concentration of 50 µM): 21.89 ± 3.03 ^c % | IC50 (α-glucosidase; compounds): > 50 µM
Structure (SMILES): O=C(O)c1cc(O)c(O)c(O)c1 [Compound 23, gallic acid]
effect on IL-1β inflammatory factor level (IL-1β): significant decrease | effect on TNF-α inflammatory factor level (TNF-α): could decrease
